From ChEMBL document CHEMBL2073934, “Functional characterization of the mouse organic-anion-transporting polypeptide 2” (Biochim Biophys Acta, 2002) come the findings set out here.

In general, Km refers to the concentration of substrate that gives half-maximal velocity.

For data set [1], the target named is T1, Solute carrier organic anion transporter family member 1A4 (Mus musculus, UniProt Q9EP96).
T1 sequence (Q9EP96 whole entry): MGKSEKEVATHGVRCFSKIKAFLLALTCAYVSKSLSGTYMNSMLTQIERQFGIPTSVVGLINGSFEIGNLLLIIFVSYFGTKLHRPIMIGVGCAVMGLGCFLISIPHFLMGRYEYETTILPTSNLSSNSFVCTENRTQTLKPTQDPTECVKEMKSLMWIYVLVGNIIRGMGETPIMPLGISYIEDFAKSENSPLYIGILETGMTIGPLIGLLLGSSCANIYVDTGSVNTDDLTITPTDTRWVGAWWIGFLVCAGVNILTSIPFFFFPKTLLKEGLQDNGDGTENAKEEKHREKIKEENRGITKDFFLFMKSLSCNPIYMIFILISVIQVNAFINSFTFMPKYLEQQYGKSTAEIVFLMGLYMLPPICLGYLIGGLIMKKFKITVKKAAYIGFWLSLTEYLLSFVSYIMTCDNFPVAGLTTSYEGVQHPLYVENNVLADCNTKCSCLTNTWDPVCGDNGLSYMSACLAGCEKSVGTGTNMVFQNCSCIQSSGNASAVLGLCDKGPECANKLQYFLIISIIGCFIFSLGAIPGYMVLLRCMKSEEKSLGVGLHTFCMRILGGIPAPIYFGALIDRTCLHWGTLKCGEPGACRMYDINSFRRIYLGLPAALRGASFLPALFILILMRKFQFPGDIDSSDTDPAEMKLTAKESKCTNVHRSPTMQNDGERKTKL
Briefly: (§1) TP_TRANSPORTER: uptake in Xenopus laevis oocytes. The following applies: oocyte. Type of data set: functional, cell-based.

Substrate in data set [2]: C[C@H]1O[C@@H](O[C@H]2[C@@H](O)C[C@H](O[C@H]3[C@@H](O)C[C@H](O[C@H]4CC[C@@]5(C)[C@H](CC[C@@H]6[C@@H]5C[C@@H](O)[C@]5(C)[C@@H](C7=CC(=O)OC7)CC[C@]65O)C4)O[C@@H]3C)O[C@@H]2C)C[C@H](O)[C@@H]1O
Described as §1. Type of data set: functional, cell-based, Oocyte.

Where a SMILES comes first, the peptide text is derived from it. [ ]: non-standard residue; d: D form.

On to `CC(C)C[C@@H]1NC(=O)[C@@H](C(C)C)NC(=O)[C@@H]2CCCN2C(=O)[C@@H](CC(=O)O)NC(=O)[C@@H](Cc2c[nH]c3ccccc23)NC1=O` [BQ-123] (cyclo(L[dW][dD]P[dV])), for which, in data set [1], the Activity entry was “substrate [+]”. As for `C[C@]12CC[C@@H]3c4ccc(OS(=O)(=O)O)cc4CC[C@H]3[C@@H]1CCC2=O` [ESTRONE SULFURIC ACID], in data set [1], the Activity result was “substrate [+]”. Consider `C[C@@H]1O[C@@H](O[C@H]2C[C@@H](O)[C@]3(CO)[C@H]4[C@H](O)C[C@]5(C)[C@@H](C6=CC(=O)OC6)CC[C@]5(O)[C@@H]4CC[C@]3(O)C2)[C@H](O)[C@H](O)[C@H]1O` [OUABAIN], for which the Activity result in data set [1] was “substrate [+]”. As for `C[C@]12CC[C@H](OS(=O)(=O)O)CC1=CC[C@@H]1[C@@H]2CC[C@]2(C)C(=O)CC[C@@H]12` [PRASTERONE SULFURIC ACID], the Activity result in data set [1] is “substrate [+]”. On to `O=C1OC(c2ccc(O)c(S(=O)(=O)[O-])c2)(c2ccc(O)c(S(=O)(=O)[O-])c2)c2c(Br)c(Br)c(Br)c(Br)c21.[Na+].[Na+]` [SULFOBROMOPHTHALEIN SODIUM], for which the Activity entry in data set [1] is “substrate [+]”.

B1: Solute carrier organic anion transporter family member 1A4 (Mus musculus) (protein)
chain: MGKSEKEVATHGVRCFSKIKAFLLALTCAYVSKSLSGTYMNSMLTQIERQFGIPTSVVGLINGSFEIGNLLLIIFVSYFGTKLHRPIMIGVGCAVMGLGCFLISIPHFLMGRYEYETTILPTSNLSSNSFVCTENRTQTLKPTQDPTECVKEMKSLMWIYVLVGNIIRGMGETPIMPLGISYIEDFAKSENSPLYIGILETGMTIGPLIGLLLGSSCANIYVDTGSVNTDDLTITPTDTRWVGAWWIGFLVCAGVNILTSIPFFFFPKTLLKEGLQDNGDGTENAKEEKHREKIKEENRGITKDFFLFMKSLSCNPIYMIFILISVIQVNAFINSFTFMPKYLEQQYGKSTAEIVFLMGLYMLPPICLGYLIGGLIMKKFKITVKKAAYIGFWLSLTEYLLSFVSYIMTCDNFPVAGLTTSYEGVQHPLYVENNVLADCNTKCSCLTNTWDPVCGDNGLSYMSACLAGCEKSVGTGTNMVFQNCSCIQSSGNASAVLGLCDKGPECANKLQYFLIISIIGCFIFSLGAIPGYMVLLRCMKSEEKSLGVGLHTFCMRILGGIPAPIYFGALIDRTCLHWGTLKCGEPGACRMYDINSFRRIYLGLPAALRGASFLPALFILILMRKFQFPGDIDSSDTDPAEMKLTAKESKCTNVHRSPTMQNDGERKTKL
In the case of B1, the Km in data set [2] worked out at 5.7 µM.
